Data on 22 molecules can be found in patent publication US20130217702A1 (Richter Gedeon Nyrt., priority 2010, published 2013).

For test [1], the target named is T1, human recombinant bradykinin B1 receptor (Homo sapiens, UniProt P46663).
T1 construct: host or cells: CHO cells, clone hB1-A5
T1 sequence (P46663 1-353): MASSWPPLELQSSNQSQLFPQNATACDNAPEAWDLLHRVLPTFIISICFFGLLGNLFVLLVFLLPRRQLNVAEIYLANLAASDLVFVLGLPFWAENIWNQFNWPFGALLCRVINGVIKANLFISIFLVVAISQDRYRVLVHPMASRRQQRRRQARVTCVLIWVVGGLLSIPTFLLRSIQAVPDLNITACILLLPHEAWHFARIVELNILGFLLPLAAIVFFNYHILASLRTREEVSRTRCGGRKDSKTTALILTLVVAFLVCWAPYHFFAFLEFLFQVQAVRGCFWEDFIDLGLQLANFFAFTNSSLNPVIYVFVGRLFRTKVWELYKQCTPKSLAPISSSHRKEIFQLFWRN
In words: Human recombinant bradykinin B1 receptor competitive radioligand binding. The note with it: hB1 expressed in CHO cells, [3H]-[Des-Arg10] Kallidin radioligand; read-out: B1 binding. Summed up: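 Membranes from CHO cells expressing hB1 (20 μg protein/tube) incubated 15 min at 25° C. with [3,4-prolyl-3,4-^3H(N)]-[Des-Arg^10] Kallidin; nonspecific binding defined with 10 μM Lys-des-Arg^9-Bradykinin. Bound label collected by filtration and counted. IC50 from ≥7-point curves in triplicate; Ki by Cheng-Prusoff.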

Test [2] concerns the target T2, recombinant human B1 receptors (Homo sapiens, UniProt P46663).
T2 construct: host or cells: CHO (CHO-B1)
T2 sequence (P46663 1-353): T1 sequence (P46663 1-353)
As to the kind of experiment: Functional assay: antagonist potency by cytosolic calcium measurement (plate reader fluorimeter) in CHO-B1 cells, agonist LysDABK. The class given is cell-based. The following applies: CHO-B1 cells, inhibition of LysDABK (EC80)-evoked [Ca2+]i elevation; read-out: B1 func. The gist of the method: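 IC50 is the concentration giving half-maximal inhibition of the LysDABK (EC80) calcium response, fitted from at least three experiments. CHO cells stably expressing human B1 were dye-loaded, exposed to compound for 20-25 min, then read by fluo-4 fluorescence (ΔF/F) at 37 °C.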

For the molecule `COc1ccc2c(c1)c(Cl)c(-c1nc(C)no1)n2-c1ccc(CNC(=O)C2(NC(=O)c3cncc(C(F)(F)F)c3)CC2)cc1` [Example 50, N-(1-{4-[3-Chloro-5-methoxy-2-(3-methyl-[1,2,4]oxadiazol-5-yl)-indol-1-yl]-benzyl-carbamoyl}-cyclopropyl)-5-trifluoromethyl-nicotinamide], in test [1], the Ki was < 0.02 µM. Also, the IC50 in test [2] is < 0.02 µM.
Turning to `COc1cccc(C(=O)NC2(C(=O)NCc3ccc(-n4c(-c5noc(C)n5)c(Cl)c5ccccc54)cc3)CC2)c1` [Example 175, N-(1-{4-[3-Chloro-2-(5-methyl-[1,2,4]oxadiazol-3-yl)-indol-1-yl]-benzylcarbamoyl}-cyclopropyl)-3-methoxy-benzamide], the Ki in test [1] is < 0.02 µM. For the same molecule, the IC50 in test [2] lay within 0.02 to 0.1 µM.
On the same counts, the results for `Cc1nc(-c2c(Cl)c3cc(F)ccc3n2-c2ccc(CNC(=O)C3(NC(=O)c4cccc(F)c4)CC3)cc2)no1` [Example 86, N-(1-{4-[3-Chloro-5-fluoro-2-(5-methyl-[1,2,4]oxadiazol-3-yl)-indol-1-yl]-benzylcarbamoyl}-cyclopropyl)-3-fluoro-benzamide] are < 0.02 µM and < 0.02 µM.
For `Cc1nnc(-c2c(Cl)c3ccccc3n2-c2ccc(CNC(=O)C3(NC(=O)C(F)(F)F)CC3)cc2)o1` [Example 6, 1-(2,2,2-Trifluoro-acetylamino)-cyclopropanecarboxylic acid 4-[3-chloro-2-(5-methyl-[1,3,4]oxadiazol-2-yl)-indol-1-yl]-benzylamide], the Ki in test [1] lay in the range of 0.02 to 0.1 µM. For the same molecule, the IC50 in test [2] is 0.02 to 0.1 µM.
`Cc1nc(-c2c(Cl)c3cc(Cl)ccc3n2-c2ccc(CNC(=O)C3(NC(=O)c4cccc(F)c4)CC3)cc2)no1` [Example 71, N-(1-{4-[3,5-Dichloro-2-(5-methyl-[1,2,4]oxadiazol-3-yl)-indol-1-yl]-benzylcarbamoyl}-cyclopropyl)-3-fluoro-benzamide]: the Ki in test [1] is < 0.02 µM. Also, in test [2], the IC50 is < 0.02 µM.
In the case of `Cc1noc(-c2cc3cc(F)ccc3n2-c2ccc(CNC(=O)C3(NC(=O)c4cncc(C(F)(F)F)c4)CC3)cc2)n1` [Example 102, N-(1-{4-[5-Fluoro-2-(3-methyl-[1,2,4]oxadiazol-5-yl)-indol-1-yl]-benzylcarbamoyl}-cyclopropyl)-5-trifluoromethyl-nicotinamide], in test [1], the Ki was < 0.02 µM. Also, the IC50 in test [2] is < 0.02 µM.
As for `COc1cc(C(=O)NC2(C(=O)NCc3ccc(-n4c(-c5nc(C)no5)cc5ccccc54)cn3)CC2)on1` [Example 56, 3-Methoxy-isoxazole-5-carboxylic acid [1-({5-[2-(3-methyl-[1,2,4]oxadiazol-5-yl)-indol-1-yl]-pyridin-2-ylmethyl}-carbamoyl)-cyclopropyl]-amide], the Ki in test [1] is 0.1 to 0.5 µM. In test [2], the IC50 fell in the range of 0.1 to 0.5 µM.
As for `Cc1nc(-c2c(Cl)c3ccccc3n2-c2ccc(CNC(=O)C3(NC(=O)c4cccnc4Cl)CC3)cc2)no1` [Example 153, 2-Chloro-N-(1-{4-[3-chloro-2-(5-methyl-[1,2,4]oxadiazol-3-yl)-indol-1-yl]-benzylcarbamoyl}-cyclopropyl)-nicotinamide], the Ki in test [1] is < 0.02 µM. In addition, in test [2], the IC50 was < 0.02 µM.
Regarding `COc1cc(C(=O)NC2(C(=O)NCc3ccc(-n4c(C#N)cc5cc(Cl)ccc54)cc3)CC2)on1` [Example 43, 3-Methoxy-isoxazole-5-carboxylic acid {1-[4-(5-chloro-2-cyano-indol-1-yl)-benzylcarbamoyl]-cyclopropyl}-amide], the Ki in test [1] is < 0.02 µM. In addition, the IC50 in test [2] is 0.02 to 0.1 µM.
For `Cc1nc(-c2c(Cl)c3ccccc3n2-c2ccc(CNC(=O)C3(NC(=O)c4cccc(=O)[nH]4)CC3)cc2)no1` [Example 162, 6-Oxo-1,6-dihydro-pyridine-2-carboxylic acid (1-{4-[3-chloro-2-(5-methyl-[1,2,4]oxadiazol-3-yl)-indol-1-yl]-benzylcarbamoyl}-cyclopropyl)-amide], in that order: < 0.02 µM and < 0.02 µM.
For `COc1ccc2c(c1)c(Cl)c(-c1noc(C)n1)n2-c1ccc(CNC(=O)C2(NC(=O)c3cncc(C(F)(F)F)c3)CC2)cc1` [Example 130, N-(1-{4-[3-Chloro-5-methoxy-2-(5-methyl-[1,2,4]oxadiazol-3-yl)-indol-1-yl]-benzylcarbamoyl}-cyclopropyl)-5-trifluoromethyl-nicotinamide], in that order: < 0.02 µM and < 0.02 µM.
With `Cc1noc(-c2c(Cl)c3ccccc3n2-c2ccc(CNC(=O)C3(NC(=O)CC(F)(F)F)CC3)cc2)n1` [Example 112, 1-(3,3,3-Trifluoro-propionylamino)-cyclopropanecarboxylic acid 4-[3-chloro-2-(3-methyl-[1,2,4]oxadiazol-5-yl)-indol-1-yl]-benzylamide], the Ki in test [1] was < 0.02 µM. In addition, the IC50 in test [2] is < 0.02 µM.
Turning to `COc1ccc2c(c1)cc(C#N)n2-c1ccc(CNC(=O)C2(NC(=O)c3cncc(C(F)(F)F)c3)CC2)cc1` [Example 44, N-{1-[4-(2-Cyano-5-methoxy-indol-1-yl)-benzylcarbamoyl]-cyclopropyl}-5-trifluoromethyl-nicotinamide], the Ki in test [1] is < 0.02 µM. Further, in test [2], the IC50 was < 0.02 µM.
As to `COc1cc(C(=O)NC2(C(=O)NCc3ccc(-n4c(-c5nnc(C)o5)c(Cl)c5ccccc54)cc3)CC2)on1` [Example 5, 3-Methoxy-N-[1-({4-[3-chloro-2-(5-methyl-1,3,4-oxadiazol-2-yl)-1H-indol-1-yl]benzyl}carbamoyl)cyclopropyl]isoxazole-5-carboxamide], the Ki in test [1] is < 0.02 µM. Besides, the IC50 in test [2] is < 0.02 µM.
In the case of `Cc1nc(-c2c(Cl)c3ccccc3n2-c2ccc(CNC(=O)C3(NC(=O)c4ccc(F)c(C(F)(F)F)c4)CC3)cc2)no1` [Example 98, N-(1-{4-[3-Chloro-2-(5-methyl-[1,2,4]oxadiazol-3-yl)-indol-1-yl]-benzylcarbamoyl}-cyclopropyl)-4-fluoro-3-trifluoromethyl-benzamide], in test [1], the Ki is < 0.02 µM. The IC50 in test [2] was in the range of 0.02 to 0.1 µM.
On the same counts, the results for `Cc1noc(-c2c(Cl)c3ccccc3n2-c2ccc(CNC(=O)C3(NC(=O)c4cc(C5CC5)on4)CC3)cc2)n1` [Example 114, 5-Cyclopropyl-isoxazole-3-carboxylic acid (1-{4-[3-chloro-2-(3-methyl-[1,2,4]oxadiazol-5-yl)-indol-1-yl]-benzylcarbamoyl}-cyclopropyl)-amide] are < 0.02 µM and < 0.02 µM.
On the same counts, the results for `Cc1cc(C(=O)NC2(C(=O)NCc3ccc(-n4c(-c5noc(C)n5)c(Cl)c5ccccc54)cc3F)CC2)no1` [Example 107, 5-Methyl-isoxazole-3-carboxylic acid (1-{4-[3-chloro-2-(5-methyl-[1,2,4]oxadiazol-3-yl)-indol-1-yl]-2-fluoro-benzylcarbamoyl}-cyclopropyl)-amide] are < 0.02 µM and < 0.02 µM.
For `Cc1nc(-c2c(Cl)c3ccccc3n2-c2ccc(CNC(=O)C3(NC(=O)c4cc(C5CC5)on4)CC3)c(F)c2)no1` [Example 110, 5-Cyclopropyl-isoxazole-3-carboxylic acid (1-{4-[3-chloro-2-(5-methyl-[1,2,4]oxadiazol-3-yl)-indol-1-yl]-2-fluoro-benzylcarbamoyl}-cyclopropyl)-amide], in that order: < 0.02 µM and < 0.02 µM.
Take `COc1cc(C(=O)NC2(C(=O)NCc3ccc(-n4c(-c5noc(C)n5)c(Cl)c5ccccc54)cc3)CC2)on1` [Example 9, 3-Methoxy-isoxazole-5-carboxylic acid (1-{4-[3-chloro-2-(5-methyl-[1,2,4]oxadiazol-3-yl)-indol-1-yl]-benzylcarbamoyl}-cyclopropyl)-amide]: the Ki in test [1] is < 0.02 µM. Moreover, the IC50 in test [2] is < 0.02 µM.
For `COc1ccc2c(c1)c(Cl)c(-c1noc(C)n1)n2-c1ccc(CNC(=O)C2(NC(=O)C(F)(F)F)CC2)cc1` [Example 63, 1-(2,2,2-Trifluoro-acetylamino)-cyclopropanecarboxylic acid 4-[3-chloro-5-methoxy-2-(5-methyl-[1,2,4]oxadiazol-3-yl)-indol-1-yl]-benzylamide], the Ki in test [1] is < 0.02 µM. In test [2], the IC50 is < 0.02 µM.
`Cc1nc(-c2c(Cl)c3ccccc3n2-c2ccc(CNC(=O)C3(NC(=O)C4CCC(=O)N4)CC3)cc2)no1` (centres unmarked) [Example 168, 5-Oxo-pyrrolidine-2-carboxylic acid (1-{4-[3-chloro-2-(5-methyl-[1,2,4]oxadiazol-3-yl)-indol-1-yl]-benzylcarbamoyl}-cyclopropyl)-amide]: the Ki in test [1] was < 0.02 µM. For the same molecule, the IC50 in test [2] is 0.02 to 0.1 µM.
For `Cn1nnc(-c2c(Cl)c3cc(Cl)ccc3n2-c2ccc(CNC(=O)C3(NC(=O)C(F)(F)F)CC3)cc2)n1` [Example 17, 1-(2,2,2-Trifluoro-acetylamino)-cyclopropanecarboxylic acid 4-[3,5-dichloro-2-(2-methyl-2H-tetrazol-5-yl)-indol-1-yl]-benzylamide], in that order: < 0.02 µM and < 0.02 µM.
